Measurements reported in ChEMBL document CHEMBL4673360, “Discovery of novel HIV-1 integrase-LEDGF/p75 allosteric inhibitors based on a pyridine scaffold forming an intramolecular hydrogen bond” (Bioorg Med Chem Lett, 2021).

Key:
[1] = test system: Human immunodeficiency virus 1; assay: Antiviral activity against HIV-1 harbouring T174I mutant infected in human MT4 cells by MTT assay; assay type: functional, organism-based; settings: Human immunodeficiency virus 1, MT4
[2] = test system: Human immunodeficiency virus 1; assay: Antiviral activity against wild type HIV-1 infected in human MT4 cells by MTT assay; assay type: functional, organism-based; settings: Human immunodeficiency virus 1, MT4
[3] = Cytotoxicity against human MT4 cells by MTT assay; assay type: cell-based
[4] = AUC in rat at 0.5 mg/kg, iv; assay type: ADME, organism-based; parameters: dose 0.5 mg/kg; settings: in vivo
[5] = Metabolic stability in rat liver microsomes assessed as parent compound remaining; assay type: ADME, Microsome
[6] = Elimination half-life in rat at 0.5 mg/kg, iv or 1 mg/kg, po; assay type: ADME, organism-based; settings: in vivo, read-out: LambdaZ (converted)
[7] = Oral bioavailability in rat at 1 mg/kg; assay type: ADME, organism-based; settings: in vivo
[8] = Total clearance in rat at 0.5 mg/kg, iv or 1 mg/kg, po; assay type: ADME, organism-based; settings: in vivo
[9] = Metabolic stability in human liver microsomes assessed as parent compound remaining; assay type: ADME, Microsome

Work on `Cc1ccc(-c2c(C)nc(NS(=O)(=O)c3cccc4ccccc34)c(C)c2C(OC(C)(C)C)C(=O)O)cc1C` (stereo not given) yielded an EC50 [1] of 1000 nM, an EC50 [2] of 32 nM and a CC50 [3] of 16000 nM.

In the case of `Cc1ccc(-c2c(C)nc(NC(=O)NC3CCCCC3)c(C)c2C(OC(C)(C)C)C(=O)O)cc1C` (stereo not given), the AUC [4] is reported as 127 ng·h/mL, the EC50 [1] is reported as > 1000 nM and the EC50 [2] is reported as 6.6 nM. It also gave a Stabilty [5] of 66%, a half-life [6] of 1.6 h and a bioavailability [7] of 9.2%. It also gave a CC50 [3] of 7900 nM, a clearance [8] of 12.5 mL/min/kg and a Stabilty [9] of 65%.

For `Cc1nc(NC(=O)NC2CCCCC2)c(C)c(C(OC(C)(C)C)C(=O)O)c1-c1ccc2c(c1)NCCO2` (stereo not given), the EC50 [2] was > 100 nM and the CC50 [3] was 30000 nM.

Compound `Cc1ccc(-c2c(C)nc(C(=O)NCc3ccccc3)c(C)c2C(OC(C)(C)C)C(=O)O)cc1C` (stereo not given) has an EC50 [2] of 180 nM and a CC50 [3] of 54000 nM.

`COc1ccc(Nc2nc(C)c(-c3ccc(C)c(C)c3)c(C(OC(C)(C)C)C(=O)O)c2C)cc1` (stereo not given) gave an EC50 [2] of 220 nM and a CC50 [3] of 28000 nM.

With `Cc1ccc(-c2c(C)nc(NC(=O)NC3CCCCCC3)c(C)c2C(OC(C)(C)C)C(=O)O)cc1C` (stereo not given) the EC50 [1] was > 1000 nM, the EC50 [2] was 11 nM and the CC50 [3] was 7700 nM.

In the case of `Cc1nc(NC(=O)NC2CCCCC2)c(C)c(C(OC(C)(C)C)C(=O)O)c1-c1ccc(C(F)(F)F)cc1` (stereo not given), the EC50 [1] is reported as 7700 nM, the EC50 [2] is reported as 61 nM and the CC50 [3] is reported as 9800 nM.

With `Cc1ccc(-c2c(C)nc(NC(=O)NC3CCCC3)c(C)c2C(OC(C)(C)C)C(=O)O)cc1C` (stereo not given) the EC50 [1] was > 1000 nM, the EC50 [2] was 8.3 nM and the CC50 [3] was 8000 nM.

For `Cc1ccc(-c2c(C)nc(NC(=O)NCCc3ccccc3)c(C)c2C(OC(C)(C)C)C(=O)O)cc1C` (stereo not given), the EC50 [1] was > 2000 nM, the EC50 [2] was 20 nM and the CC50 [3] was 11000 nM.

Compound `Cc1ccc(-c2c(C)nc(Nc3nc4ccccc4n3C)c(C)c2C(OC(C)(C)C)C(=O)O)cc1C` (stereo not given) has an EC50 [2] of 190 nM and a CC50 [3] of 14000 nM.

`Cc1ccc(-c2c(C)nc(C(=O)N(C)Cc3ccccc3)c(C)c2C(OC(C)(C)C)C(=O)O)cc1C` (stereo not given) showed an EC50 [2] of 360 nM and a CC50 [3] of 77000 nM.

In the case of `Cc1ccc(-c2c(C)nc(Nc3nc4ccccc4s3)c(C)c2C(OC(C)(C)C)C(=O)O)cc1C` (stereo not given), the EC50 [2] is reported as 350 nM and the CC50 [3] is reported as 6600 nM.

`COc1ccc(-c2c(C)nc(NC(=O)NC3CCCCC3)c(C)c2C(OC(C)(C)C)C(=O)O)cc1` (stereo not given) gave an EC50 [1] of 750 nM, an EC50 [2] of 10 nM and a CC50 [3] of 19000 nM.

With `Cc1ccc(-c2c(C)nc(NC(=O)Nc3ccccc3)c(C)c2C(OC(C)(C)C)C(=O)O)cc1C` (stereo not given) the EC50 [1] was > 1000 nM, the EC50 [2] was 11 nM and the CC50 [3] was 9900 nM.

In the case of `Cc1ccc(-c2c(C)nc(NC(=O)NCc3ccccc3)c(C)c2C(OC(C)(C)C)C(=O)O)cc1C` (stereo not given), the EC50 [1] is reported as > 4000 nM, the EC50 [2] is reported as 35 nM and the CC50 [3] is reported as 17000 nM.

In the case of `Cc1ccc(-c2c(C)nc(NC(=O)NC3CCOCC3)c(C)c2C(OC(C)(C)C)C(=O)O)cc1C` (stereo not given), the EC50 [1] is reported as > 5000 nM, the EC50 [2] is reported as 45 nM and the CC50 [3] is reported as 29000 nM.

`Cc1nc(NC(=O)NC2CCCCC2)c(C)c(C(OC(C)(C)C)C(=O)O)c1-c1ccc2c(c1)CCCO2` (stereo not given) gave an EC50 [1] of 560 nM, an EC50 [2] of 21 nM and a CC50 [3] of 17000 nM.

With `Cc1nc(NC(=O)NC2CCCCC2)c(C)c(C(OC(C)(C)C)C(=O)O)c1-c1ccc(Cl)cc1` (stereo not given) the EC50 [1] was 1800 nM, the EC50 [2] was 17 nM and the CC50 [3] was 16000 nM.

With `Cc1nc(NC(=O)NC2CCCCC2)c(C)c(C(OC(C)(C)C)C(=O)O)c1-c1ccc2c(c1C)CCCO2` (stereo not given) the EC50 [1] was 270 nM, the EC50 [2] was 6.6 nM and the CC50 [3] was 11000 nM.

With `Cc1nc2ccccc2c(-c2ccc3c4c(ccnc24)CCO3)c1[C@H](OC(C)(C)C)C(=O)O` [BI-224436] the EC50 [1] was > 5000 nM, the EC50 [2] was 22 nM and the CC50 [3] was > 50000 nM.
